The text below walks through data of patent US5814634A, “Alkylenediamine derivative anti-ulcer drug and antibacterial drug” (Shiseido Co. Ltd., priority 1996, dated 1998).

For one data set, the system named is stress ulcer. Nature of the data set: WIS: Restraint and Water Immersion Stress-Induced Ulcer Inhibition Test. In kind it is in vivo, rat (male Crj:SD or Slc:SD). As to conditions: for WIS: ulcer formation inhibitory rate: 100 mg/kg oral, rats, water immersion stress 7 hours; for effect (anti-ulcer tests): comparison of examples within compound group 1-1. As to the method: WIS: Restraint and Water Immersion Stress-Induced Ulcer Inhibition Test
The degree of inhibition of the stress ulcer formation is tested.
Male Crj:SD or Slc:SD rats (6 to 7-week-old) were fasted overnight, but allowed free access to water. Each group has 5 to 8 of these rats. The sample compound was dissolved or suspended in an aqueous solution of 0.3% sodium carboxymethylcellulose or 0.05% Tween 80 and then was orally administered (100 mg/10 ml/kg). To a control group, the vehicle was administered. 10 minutes later, the rats were placed in a stress cage and immersed to the level of xipfoid process in a water bath (21° C.) for 7 hours. At the end of the stress, the rats were sacrificed by inhalation of ether or carbon dioxide. Then, the stomach of each was removed, inflated by injecting 10 ml of 5% formalin neutral buffer solution, and immersed in 1% formalin neutral buffer solution for 30 minutes or more to be fixed. The stomach was incised along the greater curvature and then the length of each erosion in the glandular portion was determined under dissecting microscope. The sum of the length of erosions per stomach was defined as ulcer index (UI).
The effect obtained when 100 mg/kg of the sample compound had been administered was expressed as ulcer formation inhibitory rate (%) as follows: [formula] VOL, TAO: Acid Secretion Inhibition Test In Vivo i) Meaning

The next data set can be described thus: in vitro. As to conditions: rabbit, gastric mucosal cells.

For the molecule `CC(C)=CCC/C(C)=C/CSc1ccccc1C(=O)NCCN1CCCCC1` [Example 7], the “WIS: ulcer formation inhibitory rate” value with stress ulcer was determined as 87%. Besides, the “effect (anti-ulcer tests)” value in the data set with stress ulcer (result in words) is on record as “the effect has been maintained”.
With `CC(C)=CCOc1ccc(C(=O)NCCN2CCCCC2)c(OCC=C(C)C)c1` [Example 16], the cytotoxicity at 4 h, 100 µM in the data set “in vitro” was determined as 18%. The “WIS: ulcer formation inhibitory rate” value in the data set on stress ulcer is 59%.
For the molecule `CC(C)=CCC/C(C)=C/COc1ccc(C(=O)NCCN2CCOCC2)c(OC/C=C(\C)CCC=C(C)C)c1` [Example 37], the “WIS: ulcer formation inhibitory rate” value in the data set on stress ulcer is 71%.
The same measure, in the same setting: as for `COc1cc(C(=O)NCCN2CCOCC2)cc(OC)c1OCC=C(C)C` [Example 41], the figure is 39%.
On to `COc1cc(C(=O)NCCN2CCCCC2)cc(OC)c1OC/C=C(\C)CCC=C(C)C` [Example 26], for which the cytotoxicity at 4 h, 100 µM in the data set “in vitro” is 17%. Also, the “WIS: ulcer formation inhibitory rate” value in the data set with stress ulcer is on record as 72%. The anti-ulcer effect entry in the data set on stress ulcer (result in words) is “more anti-ulcer effect”.
In the case of `CC(C)=CCC/C(C)=C/COc1ccc(C(=O)NCCN2CCOCC2)cc1OC/C=C(\C)CCC=C(C)C` [Example 36], in the data set with stress ulcer, the “WIS: ulcer formation inhibitory rate” value is listed as 39%.
As to `COc1ccc(C(=O)NCCN2CCCCC2)c(OC/C=C(\C)CCC=C(C)C)c1` [Example 22], in “in vitro”, the cytotoxicity at 4 h, 100 µM turned out to be 44%. Besides, the “WIS: ulcer formation inhibitory rate” value in the data set with stress ulcer stood at 39%.
Regarding `CC(C)=CCC/C(C)=C/COc1ccc(C(=O)NCCN2CCCC(C)(C)C2)cc1` [Example 9], the “WIS: ulcer formation inhibitory rate” value with stress ulcer turned out to be 67%. For the same molecule, the “effect (anti-ulcer tests)” value in the data set on stress ulcer (result in words) is on record as “a sufficient effect can be obtained”.
Take `CC(C)=CCC/C(C)=C/COc1ccc(C(=O)NCCN2CCCCC2)c(OC/C=C(\C)CCC=C(C)C)c1` [Example 12]: the cytotoxicity at 4 h, 100 µM in “in vitro” stood at 38%. The “WIS: ulcer formation inhibitory rate” value with stress ulcer stood at 75%.
For `CC(C)=CCOc1ccc(C(=O)NCCN2CCCCC2)cc1` [Example 1], in “in vitro”, the cytotoxicity at 4 h, 100 µM is 1%. Moreover, in the data set with stress ulcer, the “WIS: ulcer formation inhibitory rate” value was 67%.
In the case of `COc1ccc(OC/C=C(\C)CCC=C(C)C)c(C(=O)NCCN2CCOCC2)c1` [Example 40], the “WIS: ulcer formation inhibitory rate” value in the data set with stress ulcer worked out at 70%.
As for `COc1cccc(C(=O)NCCN2CCCCC2)c1OC/C=C(\C)CCC=C(C)C` [Example 21], in the data set “in vitro”, the cytotoxicity at 4 h, 100 µM is 12%. For the same molecule, the “WIS: ulcer formation inhibitory rate” value with stress ulcer came out at 68%.
Regarding `CC(C)=CCC/C(C)=C/COc1cc(OC/C=C(\C)CCC=C(C)C)cc(C(=O)NCCN2CCOCC2)c1` [Example 38], the cytotoxicity at 4 h, 100 µM in the data set “in vitro” was -12%. In the data set on stress ulcer, the “WIS: ulcer formation inhibitory rate” value was 55%.
On to `CC(C)=CCOc1cc(OCC=C(C)C)cc(C(=O)NCCN2CCCCC2)c1` [Example 18], for which, in the data set “in vitro”, the cytotoxicity at 4 h, 100 µM is 33%. Besides, in the data set on stress ulcer, the “WIS: ulcer formation inhibitory rate” value was determined as 40%.
On to `CC(C)=CCOc1ccc(C(=O)NCCN2CCCCC2)cc1OCC=C(C)C` [Example 15], for which the cytotoxicity at 4 h, 100 µM in “in vitro” came to 17%. Also, in the data set on stress ulcer, the “WIS: ulcer formation inhibitory rate” value was determined as 89%.
Consider `CC(C)=CCC/C(C)=C/COc1ccccc1C(=O)NCCN1CCCCC1` [Example 5], for which the cytotoxicity at 4 h, 100 µM in “in vitro” came to 21%. For the same molecule, the “WIS: ulcer formation inhibitory rate” value with stress ulcer came out at 78%.
In the case of `CC(C)=CCC/C(C)=C/COc1ccccc1C(=O)NCCN1CCOCC1` [Example 30], the “WIS: ulcer formation inhibitory rate” value with stress ulcer is 68%.
